Assay [1] deals with S. aureus RN4220. Nature of the assay: MIC, agar plate dilution method, S. aureus RN4220. The format is cell-based, Staphylococcus aureus. Particulars: for MIC: Staphylococcus aureus, RN4220, S. aureus RN4220, Sensitive bacterium, read-out: minimal inhibitory concentration (MIC). The procedure:
(§1) As for the representative compounds of a new aminoglycoside antibiotic of the present invention described in Examples, the minimal inhibitory concentration (MIC, μg/mL) was measured for various assay strains of bacteria using an agar plate dilution method in accordance with the method described in the Japan Society of Chemotherapy.

Assay [2] deals with S. aureus RN4220/pMS520. Nature of the assay: MIC, agar plate dilution method, S. aureus RN4220/pMS520. The format is cell-based, Staphylococcus aureus. Particulars: for MIC: Staphylococcus aureus, MRSA, read-out: minimal inhibitory concentration (MIC), S. aureus RN4220/pMS520, MRSA. The procedure: as §1
Assay [3] relates to S. aureus MF490. Nature of the assay: MIC, agar plate dilution method, S. aureus MF490. In kind it is cell-based, Staphylococcus aureus. Particulars: for MIC: Staphylococcus aureus, MRSA, read-out: minimal inhibitory concentration (MIC). The procedure: as §1
Assay [4] relates to E. faecium ATCC19434. Nature of the assay: MIC, agar plate dilution method, E. faecium ATCC19434. The format is cell-based, Enterococcus faecium. Particulars: for MIC: Enterococcus faecium, ATCC19434, E. faecium ATCC19434, read-out: minimal inhibitory concentration (MIC). The procedure: as §1
Assay [5] relates to E. coli JM109/pMW218. Nature of the assay: MIC, agar plate dilution method, E. coli JM109/pMW218. In kind it is cell-based, Escherichia coli. The following applies: for MIC: Escherichia coli, JM109/PMW218, E. coli JM109/pMW218, Sensitive bacterium, read-out: minimal inhibitory concentration (MIC). The procedure:
as §1

The subject of assay [6] is K. pneumoniae ATCC BAA-1705. Nature of the assay: MIC, agar plate dilution method, K. pneumoniae ATCC BAA-1705. In kind it is cell-based, Klebsiella pneumoniae. Particulars: for MIC: Klebsiella pneumoniae, ATCCBAA1705, K. pneumoniae ATCC BAA-1705, KPC-producing strain, read-out: minimal inhibitory concentration (MIC). The procedure: as §1
In assay [7] the test system is K. pneumoniae ATCC BAA-2146. Nature of the assay: MIC, agar plate dilution method, K. pneumoniae ATCC BAA-2146. In kind it is cell-based, Klebsiella pneumoniae. Particulars: for MIC: Klebsiella pneumoniae, ATCCBAA2146, K. pneumoniae ATCC BAA-2146, NDM-producing strain, read-out: minimal inhibitory concentration (MIC). The procedure: as §1
Assay [8] concerns A. baumannii ATCC BAA-1710. Nature of the assay: MIC, agar plate dilution method, A. baumannii ATCC BAA-1710. In kind it is cell-based, Acinetobacter baumannii. The following applies: for MIC: Acinetobacter baumannii, ATCCBAA1710, A. baumannii ATCC BAA-1710, MDRA, read-out: minimal inhibitory concentration (MIC). The procedure: as §1
Assay [9] relates to S. marcescens TH-0447. Nature of the assay: MIC, agar plate dilution method, S. marcescens TH-0447. In kind it is cell-based, Serratia marcescens. Particulars: for MIC: Serratia marcescens, TH0447, S. marcescens TH-0447, AMK-resistant, read-out: minimal inhibitory concentration (MIC). The procedure:
as §1

For assay [10], the system named is S. marcescens GN6944. Nature of the assay: MIC, agar plate dilution method, S. marcescens GN6944. In kind it is cell-based, Serratia marcescens. The following applies: S. marcescens GN6944, GM-resistant; for MIC: Serratia marcescens, read-out: minimal inhibitory concentration (MIC). The procedure:
as §1

In assay [11] the test system is P. aeruginosa PAO1. Nature of the assay: MIC, agar plate dilution method, P. aeruginosa PAO1. In kind it is cell-based, Pseudomonas aeruginosa. The following applies: for MIC: Pseudomonas aeruginosa, PAO1, P. aeruginosa PAO1, Sensitive bacterium, read-out: minimal inhibitory concentration (MIC). The procedure: as §1
For assay [12], the system named is P. aeruginosa PAO1/GN315. Nature of the assay: MIC, agar plate dilution method, P. aeruginosa PAO1/GN315. In kind it is cell-based, Pseudomonas aeruginosa. Particulars: for MIC: Pseudomonas aeruginosa, read-out: minimal inhibitory concentration (MIC), P. aeruginosa PAO1/GN315, AMK-resistant. The procedure: as §1
The test system of assay [13] is P. aeruginosa MSC17707. Nature of the assay: MIC, agar plate dilution method, P. aeruginosa MSC17707. Particulars: for MIC: Pseudomonas aeruginosa, MSC17707, P. aeruginosa MSC17707, AMK-resistant, read-out: minimal inhibitory concentration (MIC). In kind it is cell-based, Pseudomonas aeruginosa. The procedure: as §1
Assay [14] concerns P. aeruginosa MSC01035. Nature of the assay: MIC, agar plate dilution method, P. aeruginosa MSC01035. In kind it is cell-based, Pseudomonas aeruginosa. The following applies: P. aeruginosa MSC01035, ABK-resistant; for MIC: Pseudomonas aeruginosa, read-out: minimal inhibitory concentration (MIC). The procedure:
as §1

≈ marks a conversion by molar mass, not a printed value.

As to `CNC1C(O[C@H]2OC(CO)[C@@H](NCCN)[C@H](O)C2O)O[C@H]2CC(N)[C@@H](O[C@@H]3C(N)C[C@@H](N)C[C@H]3O)OC2C1O` (some centres unmarked) [Compound S1-m, 6-deoxy-4″-N-(2-aminoethyl)-5-epiapramycin], the MIC in [1] stood at 2 µg/mL (≈ 3.53 µM); in [2] it was 2 µg/mL (≈ 3.53 µM); in [3], 8 µg/mL (≈ 14.1 µM); in [4], 16 µg/mL (≈ 28.2 µM); in assay [5], 1 µg/mL (≈ 1.76 µM); in [6] it was 2 µg/mL (≈ 3.53 µM). The MIC came out at 1 µg/mL (≈ 1.76 µM) in assay [7]; 4 µg/mL (≈ 7.06 µM) in assay [8]; 4 µg/mL (≈ 7.06 µM) in assay [9]; 8 µg/mL (≈ 14.1 µM) in assay [10]; 4 µg/mL (≈ 7.06 µM) in assay [11]; 8 µg/mL (≈ 14.1 µM) in assay [12]. The MIC in assay [13] and in [14] was 8 µg/mL (≈ 14.1 µM) each time.
Consider `CNC1C(O[C@H]2OC(C)[C@@H](NC(CN)CN)[C@H](O)C2O)O[C@H]2CC(N)[C@@H](O[C@H]3CC(O)[C@H](N)CC3N)OC2C1O` (some centres unmarked) [Compound S1-p, 4″-N-(1,3-diaminopropan-2-yl)-5,6″-dideoxyapramycin], for which the MIC in [1] amounted to 1 µg/mL (≈ 1.73 µM); in assay [2], 1 µg/mL (≈ 1.73 µM); in assay [3], 2 µg/mL (≈ 3.45 µM); in assay [4] it was 4 µg/mL (≈ 6.9 µM); in assay [5] it was 1 µg/mL (≈ 1.73 µM); in assay [6], 1 µg/mL (≈ 1.73 µM). For the same compound, the MIC turned out to be 1 µg/mL (≈ 1.73 µM) in assay [7]; 8 µg/mL (≈ 13.8 µM) in assay [8]; 8 µg/mL (≈ 13.8 µM) in assay [9]; 4 µg/mL (≈ 6.9 µM) in assay [10]; 2 µg/mL (≈ 3.45 µM) in assay [11]; 4 µg/mL (≈ 6.9 µM) in assay [12]. Moreover, the MIC in assay [13] and in assay [14] was 4 µg/mL (≈ 6.9 µM) throughout.
Turning to `CNC1C(O[C@H]2OC(CO)[C@@H](NCCCN)[C@H](O)C2O)O[C@H]2CC(N)[C@@H](O[C@@H]3C(N)C[C@@H](N)C(O)[C@H]3O)OC2C1O` (some centres unmarked) [Compound A4-b, 4″-N-(3-aminopropyl)apramycin], the MIC turned out to be 4 µg/mL (≈ 6.7 µM) in assay [1]; 4 µg/mL (≈ 6.7 µM) in [2]; 8 µg/mL (≈ 13.4 µM) in assay [3]; 16 µg/mL (≈ 26.8 µM) in assay [4]; 2 µg/mL (≈ 3.35 µM) in [5]; 2 µg/mL (≈ 3.35 µM) in assay [6]. Also, the MIC is 2 µg/mL (≈ 3.35 µM) in [7]; 8 µg/mL (≈ 13.4 µM) in assay [8]; 8 µg/mL (≈ 13.4 µM) in assay [9]; 8 µg/mL (≈ 13.4 µM) in [10]; 4 µg/mL (≈ 6.7 µM) in [11]; 8 µg/mL (≈ 13.4 µM) in assay [12]. The MIC in assay [13] and in [14] was 8 µg/mL (≈ 13.4 µM) throughout.
With `CNC1C(OC2OC(CO)C(N)CC2O)OC2CC(N)C(OC3CCC(N)CC3N)OC2C1O` (centres unmarked) [Compound N7, 5,6,3″-trideoxyapramycin], the “minimal inhibitory concentration (MIC)” value in assay [1] (S. aureus RN4220, Sensitive bacterium) was found to be 2 µg/mL (≈ 4.07 µM); in assay [2] (S. aureus RN4220/pMS520, MRSA) it was 2 µg/mL (≈ 4.07 µM); in [3] (S. aureus MF490, MRSA), 8 µg/mL (≈ 16.3 µM); in [4] (E. faecium ATCC19434), 16 µg/mL (≈ 32.5 µM); in assay [5] (E. coli JM109/pMW218, Sensitive bacterium) it was 1 µg/mL (≈ 2.03 µM); in [6] (K. pneumoniae ATCC BAA-1705, KPC-producing strain), 1 µg/mL (≈ 2.03 µM). The “minimal inhibitory concentration (MIC)” value in assay [7] (K. pneumoniae ATCC BAA-2146, NDM-producing strain) came to 1 µg/mL (≈ 2.03 µM); in assay [8] (A. baumannii ATCC BAA-1710, MDRA), 8 µg/mL (≈ 16.3 µM); in assay [9] (S. marcescens TH-0447, AMK-resistant), 8 µg/mL (≈ 16.3 µM); in assay [10], 4 µg/mL (≈ 8.14 µM); in assay [11] (P. aeruginosa PAO1, Sensitive bacterium), 4 µg/mL (≈ 8.14 µM); in assay [12] (P. aeruginosa PAO1/GN315, AMK-resistant), 4 µg/mL (≈ 8.14 µM). The “minimal inhibitory concentration (MIC)” value is 8 µg/mL (≈ 16.3 µM) in assay [13] (P. aeruginosa MSC17707, AMK-resistant) and 8 µg/mL (≈ 16.3 µM) in assay [14].

(Values after patent US11135234B2, “Effective aminoglycoside antibiotic for multidrug-resistant bacteria” (MICROBIAL CHEMISTRY RESEARCH FOUNDATION, priority 2015, dated 2021).)
